Starred links: 1 amine or outer side, 2 acyl side, 3 side chain; linkers in the order of their positions; H or OH if unused. Residues, ends and D or L forms follow the SMILES beside them. Glutaryl = O=C(CCCC(=O)[*:2])[*:1]
System: Coxsackie A2 virus (strain HCXV A2)
Test: Antiviral activity against Coxsackie virus in vivo (mortality and life expectancy of infected mice)
Conditions: Mus musculus, po, 168 h, read-out: Protective index (%)
Procedure: In the study a trypsin-dependent strain HCXV A2 was used, previously adapted and causing death in mice from Coxsackie virus infection.
The experiment was carried out in white mice weighing 6 to 7 g. The animals were infected intramuscularly with a dose of 0.1 mL/mouse. The used infectious dose causing mortality in mice was 10LD50.
The ability of compounds to provide a therapeutic effect was determined by the mortality rate of HCXV A2 virus-infected mice in the experimental group relative to the group of untreated animals.
The studied compounds and placebo were administered orally according to the treatment regimen. Normal saline solution was administered to mice as placebo. Intact animals served as a negative control and were hold in a separate room under the same conditions as the experimental animals.
For the experiment, groups were formed with 14-15 animals each. Compounds were administered at a dose of 30 mg/kg of body weight. The studied compounds were administered orally once daily for 7 days (first administration was made 24 hours after infection). The animals were monitored for 15 days during which the animals were weighed and the mortality rate was registered every day.

| SMILES | inhibition in vivo at 30 mg/kg |
| --- | --- |
| O=C(O)CCCC(=O)NCCc1ccc[nH]1 [Compound 14] | 36% |

Same assay, conditions: Mus musculus, po, 168 h; 30 mg/kg orally once daily for 7 days; vs virus control; read-out: Protective index (%)

| SMILES | inhibition in vivo at 30 mg/kg |
| --- | --- |
| O=C(O)CCCC(=O)NCCc1ncccn1 [Compound 12] | 45% |
| O=C(O)CCCC(=O)NCCc1cccnn1 [Compound 13] | 36% |
| O=C(O)CCCC(=O)NCCc1cnon1 [Compound 29] | 50% |
| CC(CCC(=O)O)C(=O)NCCc1c[nH]cn1 (stereo not drawn) [Compound 30] | 18% |
| O=C(O)CCCC(=O)NCCCc1ccco1 [Compound 32] | 33% |
| O=C(O)CCCC(=O)NCCCc1ccccn1 [Compound 35] | 27% |
| O=C(O)CCCC(=O)NCCc1ccc(Cl)nc1 [Compound 36] | 27% |
| O=C(O)CCCC(=O)OCCc1cnc[nH]1 [Compound 71] | 44% |
| CC(C)(CCC(=O)NC(Cc1c[nH]cn1)C(=O)O)C(=O)O (stereo not drawn) [Compound 75] | 50% |
| COC(=O)C(NC(=O)C(Cc1cnc[nH]1)NC(=O)CCCC(=O)O)C(C)C (stereo not drawn) [Compound 89] (Glutaryl-His-Val-OMe; configuration not given here) | 27% |
| CC(C)C(NC(=O)C(Cc1cnc[nH]1)NC(=O)CCCC(=O)O)C(N)=O (stereo not drawn) [Compound 90] (Glutaryl-His-Val-NH2; configuration not given here) | 50% |

Same assay, conditions: Mus musculus, po, 360 h, read-out: Total mortality, %

| SMILES | mortality at 30 mg/kg |
| --- | --- |
| O=C(O)CCCC(=O)NCCc1ncccn1 [Compound 12] | 40% |
| O=C(O)CCCC(=O)NCCc1cccnn1 [Compound 13] | 46.7% |
| O=C(O)CCCC(=O)NCCc1ccc[nH]1 [Compound 14] | 50% |
| O=C(O)CCCC(=O)NCCc1cnon1 [Compound 29] | 35.7% |
| CC(CCC(=O)O)C(=O)NCCc1c[nH]cn1 (stereo not drawn) [Compound 30] | 60% |
| O=C(O)CCCC(=O)NCCCc1ccco1 [Compound 32] | 42.9% |
| O=C(O)CCCC(=O)NCCCc1ccccn1 [Compound 35] | 53.3% |
| O=C(O)CCCC(=O)NCCc1ccc(Cl)nc1 [Compound 36] | 53.3% |
| O=C(O)CCCC(=O)OCCc1cnc[nH]1 [Compound 71] | 35.7% |
| CC(C)(CCC(=O)NC(Cc1c[nH]cn1)C(=O)O)C(=O)O (stereo not drawn) [Compound 75] | 35.7% |
| COC(=O)C(NC(=O)C(Cc1cnc[nH]1)NC(=O)CCCC(=O)O)C(C)C (stereo not drawn) [Compound 89] (Glutaryl-His-Val-OMe; configuration not given here) | 53.3% |
| CC(C)C(NC(=O)C(Cc1cnc[nH]1)NC(=O)CCCC(=O)O)C(N)=O (stereo not drawn) [Compound 90] (Glutaryl-His-Val-NH2; configuration not given here) | 35.7% |

Same assay, conditions: difference vs virus control; 30 mg/kg orally once daily for 7 days

| SMILES | Average life expectancy (days), Compared with control |
| --- | --- |
| O=C(O)CCCC(=O)NCCc1ncccn1 [Compound 12] | +14.2 days |
| O=C(O)CCCC(=O)NCCc1cccnn1 [Compound 13] | +8.3 days |
| O=C(O)CCCC(=O)NCCc1ccc[nH]1 [Compound 14] | +10.4 days |
| O=C(O)CCCC(=O)NCCc1cnon1 [Compound 29] | +13.7 days |
| CC(CCC(=O)O)C(=O)NCCc1c[nH]cn1 (stereo not drawn) [Compound 30] | +2.4 days |
| O=C(O)CCCC(=O)NCCCc1ccco1 [Compound 32] | +10.0 days |
| O=C(O)CCCC(=O)NCCCc1ccccn1 [Compound 35] | +5.9 days |
| O=C(O)CCCC(=O)NCCc1ccc(Cl)nc1 [Compound 36] | +6.0 days |
| O=C(O)CCCC(=O)OCCc1cnc[nH]1 [Compound 71] | +16.4 days |
| CC(C)(CCC(=O)NC(Cc1c[nH]cn1)C(=O)O)C(=O)O (stereo not drawn) [Compound 75] | +14.3 days |
| COC(=O)C(NC(=O)C(Cc1cnc[nH]1)NC(=O)CCCC(=O)O)C(C)C (stereo not drawn) [Compound 89] (Glutaryl-His-Val-OMe; configuration not given here) | +7.0 days |
| CC(C)C(NC(=O)C(Cc1cnc[nH]1)NC(=O)CCCC(=O)O)C(N)=O (stereo not drawn) [Compound 90] (Glutaryl-His-Val-NH2; configuration not given here) | +15.1 days |

Same assay, conditions: mice infected with 10LD50 HCXV A2; 30 mg/kg orally once daily for 7 days

| SMILES | Average life expectancy (days), Relative |
| --- | --- |
| O=C(O)CCCC(=O)NCCc1ncccn1 [Compound 12] | 24.9 days |
| O=C(O)CCCC(=O)NCCc1cccnn1 [Compound 13] | 19.0 days |
| O=C(O)CCCC(=O)NCCc1ccc[nH]1 [Compound 14] | 21.4 days |
| O=C(O)CCCC(=O)NCCc1cnon1 [Compound 29] | 26.7 days |
| CC(CCC(=O)O)C(=O)NCCc1c[nH]cn1 (stereo not drawn) [Compound 30] | 13.1 days |
| O=C(O)CCCC(=O)NCCCc1ccco1 [Compound 32] | 22.2 days |
| O=C(O)CCCC(=O)NCCCc1ccccn1 [Compound 35] | 16.6 days |
| O=C(O)CCCC(=O)NCCc1ccc(Cl)nc1 [Compound 36] | 16.7 days |
| O=C(O)CCCC(=O)OCCc1cnc[nH]1 [Compound 71] | 28.6 days |
| CC(C)(CCC(=O)NC(Cc1c[nH]cn1)C(=O)O)C(=O)O (stereo not drawn) [Compound 75] | 27.3 days |
| COC(=O)C(NC(=O)C(Cc1cnc[nH]1)NC(=O)CCCC(=O)O)C(C)C (stereo not drawn) [Compound 89] (Glutaryl-His-Val-OMe; configuration not given here) | 17.7 days |
| CC(C)C(NC(=O)C(Cc1cnc[nH]1)NC(=O)CCCC(=O)O)C(N)=O (stereo not drawn) [Compound 90] (Glutaryl-His-Val-NH2; configuration not given here) | 25.9 days |

System: human virus hRSV
Test: Antiviral activity against mouse-adapted RS virus (body weight; viral titer in lungs titrated in Hep-2 cells)
Assay type: in vivo, mice
Conditions: day 5; 10% lung suspension titrated in Hep-2 cells (TCID); compounds 30 mg/kg, Ribavirin 40 mg/kg
Procedure: Antiviral effectiveness of the chemical compounds against RSV in an experimental murine model in vivo was determined for human virus hRSV that was previously adapted to the growth in mouse lungs. The animals were infected with the virus at a dose of 0.5 log TCID50 intranasally under brief ether anesthesia in a volume of 0.05 ml/mouse. The studied compounds were administered orally once daily for 5 days according to the treatment regimen at a dose of 30 mg/kg. The first administration was made 24 hours after infection. Normal saline solution was administered to mice as placebo. Intact animals served as a negative control and were hold in a separate room under the same conditions as the experimental animals. Each experimental group comprised 12 animals.
The antiviral activity of the studied compounds was determined by the efficiency in the prevention of weight loss and by suppression of the reproduction of hRSV in the mouse lungs by measuring a viral titer in the experimental groups relative to the control on days 5 and 7 after infection.
In addition, the therapeutic action of the compounds of general formula I was determined by their ability to suppress the reproduction of hRSV in the mouse lungs on days 5 and 7 after infection. The viral titer was determined by the titration of a 10% lung suspension in Hep-2 cell culture. The result was registered 2 days after the incubation at 37° C. by TCID.

| SMILES | hRSV in the lungs of mice, Day 5, lg |
| --- | --- |
| O=C(O)CCCC(=O)NCCC1CCNC1 (stereo not drawn) [Compound 1] | 2.88 ± 0.59 lg |

Same assay, conditions: day 5; compounds 30 mg/kg, Ribavirin 40 mg/kg, orally once daily for 5 days; n = 6

| SMILES | Body weight of the mice on day 5 after infection with hRSV (M ± SD) |
| --- | --- |
| O=C(O)CCCC(=O)NCCC1CCNC1 (stereo not drawn) [Compound 1] | 16.43 ± 0.14 |

Same assay, conditions: day 7; 10% lung suspension titrated in Hep-2 cells (TCID); compounds 30 mg/kg, Ribavirin 40 mg/kg

| SMILES | hRSV in the lungs of mice, Day 7, lg |
| --- | --- |
| O=C(O)CCCC(=O)NCCC1CCNC1 (stereo not drawn) [Compound 1] | 1.46 ± 0.17 lg |

Same assay, conditions: day 7; compounds 30 mg/kg, Ribavirin 40 mg/kg, orally once daily for 5 days; n = 6

| SMILES | Body weight of the mice on day 7 after infection with hRSV (M ± SD) |
| --- | --- |
| O=C(O)CCCC(=O)NCCC1CCNC1 (stereo not drawn) [Compound 1] | 17.98 ± 0.26 |

Same assay, conditions: human respiratory syncytial virus, HEp-2, po, 120 h, read-out: Suppression of the reproduction of hRSV in the lungs of mice, Day 5, Δlg

| SMILES | log reduction at 30 mg/kg |
| --- | --- |
| O=C(O)CCCC(=O)NCCC1CCNC1 (stereo not drawn) [Compound 1] | 1.73 ± 0.59 |

Same assay, conditions: human respiratory syncytial virus, HEp-2, po, 168 h, read-out: Suppression of the reproduction of hRSV in the lungs of mice, Day 7, Δlg

| SMILES | log reduction at 30 mg/kg |
| --- | --- |
| O=C(O)CCCC(=O)NCCC1CCNC1 (stereo not drawn) [Compound 1] | 2.34 ± 0.17 |

System: human respiratory syncytial virus (strain A2)
Test: Antiviral activity against RS virus in a murine model of suppressed immune system (lung edema)
Assay type: in vivo
Conditions: Balb/c mice, cyclophosphan-suppressed, RS-virus pneumonia; 30 mg/kg once daily for 5 days; M ± SD, n = 5; scores from possible 4
Procedure: Antiviral activity of the chemical compounds against human respiratory syncytial virus (strain A2, an infectious titer of 5×10^6 TCID50/mL) was assessed in a Balb/c murine model of viral pneumonia. The virus was inoculated to animals intranasally in a volume of 50 μL under brief ether anesthesia. The immune response in animals to RS virus was suppressed by intraperitoneal administration of cyclophosphan at a dose of 100 mg/kg 5 days before infection. The studied compounds were administered according to the treatment regimen once daily at a dose of 30 mg/kg for 5 days, starting 24 hours after infection. The activity of the compounds was determined by a reduction in edema of the lung infected with respiratory syncytial virus, compared to the control, on day 5 after infection.

| SMILES | Degree of lung edema on day 5 after infection, score |
| --- | --- |
| O=C(O)CCCC(=O)NCCC1CCNC1 (stereo not drawn) [Compound 1] | 1.3 ± 0.27 score |
| O=C(O)CCCC(=O)NCCCc1ccccn1 [Compound 35] | 1.48 ± 0.17 score |
| COC(=O)C(NC(=O)C(Cc1cnc[nH]1)NC(=O)CCCC(=O)O)C(C)C (stereo not drawn) [Compound 89] (Glutaryl-His-Val-OMe; configuration not given here) | 0.75 ± 0.17 score |
